Measurements reported in US20220030866A1, “CONJUGATES OF AUXIN ANALOGS” (The State of Israel, Ministry of Agriculture & Rural …, priority 2019, published 2022).

Tests used:
Format in all cases: in vivo
[1] = system: avocado rootstock cuttings; assay: rooting of avocado rootstock cuttings; settings: for root architecture / root length of VC801 avocado cuttings compared to IBA control, in words: VC801 rootstock
Source text: Avocado rootstock is extremely difficult to root. Currently, the common technique for propagating clones of avocado rootstock is to graft the desired rootstock on a seedling, and transfer to the dark to generate an etiolated branch. This branch can be rooted and grafted with the desired variety while still grafted on the seed [Frolich & Platt, California Avocado Society 1971-72 Yearbook 1972, 55:97-109]. However, the preparation of such twice-grafted seedlings is time-consuming and expensive.
The ability of exemplary conjugates to promote rooting in green avocado cuttings (in the presence of IBA) was therefore examined. In particular, Compounds 2h (MCPA-methanol), 4b (NAA-β-alanine methyl ester), 3g (2-DP-methyl-4-aminobenzoate), 3f (2-DP-p-toluidine), 1l (4-CPA-morpholine) and is (4-CPA-D-Trp) were tested.
(§1) Exemplary conjugates were also tested for rooting the hard-to-root species of avocado (VC801 rootstock) and argan, according to procedures described hereinabove.

[2] = system: argan (Argania spinosa) cuttings; assay: rooting of argan cuttings; settings: in vivo
Method: The ability of exemplary conjugates to promote rooting in plants which are recalcitrant to rooting (in addition to the results obtained with Eucalyptus grandis in Example 3) was examined using cuttings of argan (Argania spinosa) and jojoba (Simmondsia chinensis) in a commercial nursery (Shorashim). The argan and jojoba cuttings were treated with 100 μM of a conjugate (any of Compounds 10-1t) with 6000 ppm IBA. The common treatment T-8 (talc with 8000 ppm IBA and a fungicide) or 6000 ppm IBA (without conjugate) served as a control.
as §1

[3] = system: cuttings from mature Eucalyptus grandis trees; assay: rooting of cuttings from mature Eucalyptus grandis trees; settings: 100 μM compound by submerging or spraying, with 6000 ppm IBA
[4] = system: cuttings from mature Eucalyptus grandis trees; assay: as above; settings: 100 μM conjugate without IBA, or 28 mM (6000 ppm) IBA alone; submerging base or spraying; scored after 45-60 days
Method: Eight-year-old Eucalyptus grandis plants were grown from seeds and placed in a net house in 20 liter pots containing peat and tuff (70:30, v/v), drip irrigated and fertilized with 3 liters of Shefer™ 737 liquid fertilizer (ICL Fertilizers, Israel) per cubic meter of water. Cuttings were collected from branches which grew 2-2.5 meters above the ground. Cuttings were 2-3 mm thick branches, 15 cm long, with 1-2 pairs of leaves. The leaf blades were cut in half to decrease transpiration. Cuttings were treated with 6000 ppm IBA (potassium indole-3-butyric acid) for 1 minute with or without 100 μM of each tested compound. The tested compounds were either applied to the base of the cutting, with or without IBA and/or sprayed on the foliage in the presence of 0.05% Triton™ X-100 surfactant. Cuttings were rooted in rooting tables heated to 25° C. under constant 90% humidity, in a controlled-climate greenhouse. The rooting medium contained crushed polystyrene foam: vermiculite no. 3: pit (3:2:1, v/v/v). Rooting was recorded after 30-60 days. Roots system architecture was analyzed by WinRHIZO™ system scanner and software.
Exemplary conjugates prepared as described in Example 1 were tested for their ability to promote adventitious root (AR) formation in cuttings from mature eucalyptus (Eucalyptus grandis) trees. In this model, AR formation is difficult to induce, with 5-15% root development in the presence of IBA potassium salt [Abu-Abied et al., Plant J 2012, 71:787-799], such that effective AR formation indicates a potent root formation activity.
Various concentrations and mode of applications were tested for each compound in the presence or absence of IBA (the “gold standard” rooting enhancer). A concentration of 100 μM of each conjugate was used for an initial screen of 37 conjugates, in which the compounds were applied to the base of the cutting by dipping (submerging the cutting base in a solution of the conjugate for one minute) or to the foliage by spraying. After 45 days, the cuttings were scored for the presence of callus or roots.
Conjugates prepared as described herein were evaluated in a Eucalyptus grandis rooting model, according to procedures such as described hereinabove. The bases of cuttings (a 12-15 cm long branch with the two upper leaves, whose blades were cut in half) were dipped in a solution containing 6000 ppm IBA potassium salt and 50 μM of conjugate for 1 minute, and the leaves were sprayed with 50 μM of the same conjugate (mixed with 0.5% Triton™ X-100 surfactant). The cuttings were imbedded in a heated (25° C.) rooting table containing a 1:2:3 ratio of peat:vermiculite:polystyrene, under 90% relative humidity.

[5] = system: mung bean cuttings; assay: rooting of mung bean cuttings (number of adventitious roots per cutting); settings: for effect on AR formation in mung bean cuttings, in words: tested at 2, 10 or 50 μM
Method: Mung bean cuttings have been used for many years as a model for assessing the effect of plant hormones and synthetic chemicals on the rooting process. In the present study, this system was used to ascertain activity of conjugates in inducing adventitious root (AR) formation, and to evaluate the rate of conjugate hydrolysis that releases the free active auxin. […] The rooting activity in this system is determined by the number of adventitious roots per cutting.
The mung bean model was used to examine the activity of conjugates of three phenoxy acids, 4-CPA, MCPA, and 2-DP, on rooting. For comparison, plants were treated with (unconjugated) IBA or with 2-DP conjugated to glycine methyl ester (Gly-ME).

[6] = system: Arabidopsis seedlings; assay: root elongation inhibition in Arabidopsis seedlings; settings: 50 nM, after 5 days
Method: Adventitious roots (ARs) were induced in intact plants, using previously described procedures [Gutierrez et al., Plant Cell 2009, 21:3119-3132; Abu-Abied et al., Plant J 2012, 71:787-799; Rasmussen et al., Plant Physiol 2012, 158:1976-1987]. Briefly, seeds were germinated on MS/0.8% agar plates supplemented with 3% sucrose. The plates were kept in the dark for 2 days at 4° C., then 5 days at 22° C. in the dark, 2 days in the light, 3 days in the dark and then additional 4 days in the light to complete 2 weeks when roots were counted using a stereoscope. Sensitivity to auxin and/or auxin analogs was determined by following root elongation on vertical plates. The 4-day-old seedlings were transferred to MS plates containing 0.05 or 0.5 μM IAA and the root length was measured after 5 days, including the number of LRs in each root and calculation of the LR density. Each treatment experiment included 10-15 plants and was repeated 3 times.
A common technique for evaluating auxin activity is by determining the ability of a compound to inhibit root elongation [Zolman et al., Genetics 2000, 156:1323-1337]. In order to use this assay for comparing auxin activities of different conjugates, the minimum concentration of free 4-CPA that is active in the root elongation inhibition assay was determined. Four days old seedlings were placed in vertical plates containing increasing concentrations of 4-CPA. The root lengths were marked daily during 5 days.
Based on the above results, the effect of conjugates of 4-CPA (Compounds 1o-1t) on root elongation after 5 days was determined at concentrations of 50 nM.

[7] = system: Pinus halepensis cuttings; assay: rooting and root development in pine cuttings; settings: 400 ppm IBA potassium salt + 5 ppm conjugate, 4 hours dip; 12 weeks
Method: The effects of exemplary D-amino acid conjugates of 4-CPA (Compounds to and Is) on rooting in Pinus halepensis cuttings were compared with those of 2-DP-glycine methyl ester conjugate (2-DP-Gly). Rooting mature pine cuttings (i.e., cuttings that are taken from trees more than 4 years old) is very difficult.
Apical cuttings were taken from 7-year-old trees, stored for 4 weeks at 4° C., and treated by dipping the cutting bases for 4 hours in the following solution: 400 ppm IBA potassium salt+5 ppm tested conjugate+0.1% Amistar™ fungicide (250 grams/liter azoxystrobin). The cuttings were evaluated after 12 weeks.

[8] = system: DR5:venus marker; assay: auxin activity by DR5:venus fluorescence in Arabidopsis plants; settings: 10 μM
Method: Imaging was performed using an SP8 Leica confocal microscope including solid-state lasers producing 405, 488, 514 and 552 nm light, and hybrid or PMT detectors. Objectives were either PL APO 20×/0.75, WD 0.62 mm or PL APO 63×/1.2 WD 0.3 mm. For fluorescence measurements, the Imaris™ spot detection option (Bitplane A.G.) was used to segment nuclei and calculate the average signal intensity.
One technique for assessing auxin activity of the 4-CPA amino acid conjugates utilized plants expressing nucleus-localized, fluorescent DR5:venus marker, the expression level of which is an indicator of intracellular auxin activity [Laskowski et al., PLoS Biol 2008, 6:e307]. Four days old seedlings grown on regular MS medium were transferred to plates containing 10 μM of the tested compounds and fluorescence was inspected by confocal microscope after 24 hours.
In order to assess the ability of the abovementioned sodium salts to penetrate the cells and activate an auxin response, an Arabidopsis DR5-Venus model was utilized (as described hereinabove). The plants were exposed to 10 μM of each compound for 24 hour; MS medium was used as a negative control, and the related Compounds 1p, 1r and 1t were used as positive controls.

[9] = Table 1, 10 μM, water control 29.6
[10] = Table 1, 50 μM, water control 29.6

COC(=O)[C@H](CC(N)=O)NC(=O)COc1ccc(Cl)cc1 [4-CPA-L-Asn-methyl ester]
root architecture / root length of VC801 avocado cuttings compared to IBA control, in words [1]: considerably increased root length
number of roots per cutting in argan clone YM3 compared to IBA control, in words [2]: considerably increased the number of roots per cutting

COC(=O)[C@H](Cc1cnc[nH]1)NC(=O)COc1ccc(Cl)cc1 [4-CPA-L-His-methyl ester]
root architecture / root length of VC801 avocado cuttings compared to IBA control, in words [1]: considerably increased root length
number of roots per cutting in argan clone YM3 compared to IBA control, in words [2]: considerably increased the number of roots per cutting

O=C(COc1ccc(Cl)cc1)NCCO [Compound 1a, 4-CPA-ethanolamine]
rooting in combination with IBA compared with IBA alone, in words [3]: enhanced rooting in comparison with IBA alone
percentage of cuttings which exhibited rooting, stand-alone treatment [4]: 15%
rooting of mung bean cuttings (number of roots per cutting) [5, 9]: 49.5
rooting of mung bean cuttings (number of roots per cutting) [5, 10]: 14.9

COC(=O)CCNC(=O)COc1ccc(Cl)cc1 [Compound 1b, 4-CPA-β-alanine methyl ester]
rooting in combination with IBA compared with IBA alone, in words [3]: enhanced rooting in comparison with IBA alone
rooting of mung bean cuttings (number of roots per cutting) [5, 9]: 0
rooting of mung bean cuttings (number of roots per cutting) [5, 10]: 0

Cc1ccc(NC(=O)COc2ccc(Cl)cc2)cc1 [Compound 1f, 4-CPA-p-toluidine]
rooting in combination with IBA compared with IBA alone, in words [3]: enhanced rooting in comparison with IBA alone
rooting of mung bean cuttings (number of roots per cutting) [5, 9]: 0
rooting of mung bean cuttings (number of roots per cutting) [5, 10]: 0

COC(=O)c1ccc(NC(=O)COc2ccc(Cl)cc2)cc1 [Compound 1g, 4-CPA-methyl-4-aminobenzoate]
rooting in combination with IBA compared with IBA alone, in words [3]: enhanced rooting in comparison with IBA alone
rooting of mung bean cuttings (number of roots per cutting) [5, 9]: 0
rooting of mung bean cuttings (number of roots per cutting) [5, 10]: 0

COC(=O)C[C@H](NC(=O)COc1ccc(Cl)cc1)C(=O)OC [Compound 1r, 4-CPA-L-Asp-methyl diester]
rooting in combination with IBA compared with IBA alone, in words [3]: at least as potent as that of their corresponding D-amino acid conjugates
effect on root elongation relative to control, in words [6]: inhibited root elongation relative to control
rooting of mung bean cuttings (number of roots per cutting) ([5]; Table 2, 2 μM): 121
rooting of mung bean cuttings (number of roots per cutting) ([5]; Table 2, 10 μM): 34
rooting of mung bean cuttings (number of roots per cutting) ([5]; Table 2, 50 μM): 0
effect on AR formation in mung bean cuttings, in words [5]: exhibited more activity than the D-Asp-methyl ester conjugate

COC(=O)CNC(=O)C(C)Oc1ccc(Cl)cc1Cl (centres unmarked) [Compound 2-DP-Gly, reference compound]
Degree of root development Medium (%) [7]: 6.6%
Degree of root development Weak (%) [7]: 46.7%
Degree of root development Well-developed (%) [7]: 46.7%
Rooting rate (%) [7]: 87.5%
rooting of mung bean cuttings (number of roots per cutting) [5, 10]: 97.2
effect on AR formation in mung bean cuttings, in words [5]: positively correlated to dose

Cc1ccc(NC(=O)C(C)Oc2ccc(Cl)cc2Cl)cc1 (centres unmarked) [Compound 3f, 2-DP-p-toluidine]
roots per cutting of green avocado branches compared with etiolated branches treated with IBA, in words ([1]; vc51 rootstock, IBA with compound): considerably more roots per cutting
rooting success rate of green avocado branches, in words ([1]; vc51 rootstock, IBA with compound, compared with IBA alone): considerably enhanced the rooting success rate
rooting in combination with IBA compared with IBA alone, in words [3]: enhanced rooting in comparison with IBA alone

COC(=O)C(C)Oc1ccc(Cl)cc1Cl (centres unmarked) [Compound 3h, 2-DP-methanol]
rooting in combination with IBA compared with IBA alone, in words [3]: enhanced rooting in comparison with IBA alone

COC(=O)CNC(=O)COc1ccc(Cl)cc1 [Compound 4-CPA-Gly, 4-CPA-Gly-methyl ester]
rooting in combination with IBA compared with IBA alone, in words [3]: exhibited lower rooting activity than the other conjugates
appearance of the base of mung bean cuttings ([5]; FIGS. 4A, 4B): appeared swollen, but no AR developed
effect on AR formation in mung bean cuttings, in words [5]: induced a similar rooting rate only at the lowest tested concentration of 2 μM

CC(C)[C@H](NC(=O)COc1ccc(Cl)cc1)C(=O)[O-].[Na+] [Compound 83, 4-CPA-L-Val sodium salt]
DR5 fluorescence (auxin activity), in words [8]: about as active as their non-water soluble methyl esters

O=C([O-])C[C@H](NC(=O)COc1ccc(Cl)cc1)C(=O)[O-].[Na+].[Na+] [Compound 84, 4-CPA-L-Asp disodium salt]
DR5 fluorescence (auxin activity), in words [8]: did not promote DR5 activity
